Data on two molecules can be found in patent publication US4438207A, “Radioimmunoassay for cannabinoids” (priority 1981, dated 1984).

A short description of series [1]: Urine THC levels as a function of time after smoking known dosages. Conditions: THC 2.5 mg smoked.
Series [2] relates to Tetrahydrocannabinol Antibody. Nature of the series: ^125 I THC radioimmunoassay response curve, dextran-coated charcoal separation. Format: binding, rabbit.
For series [3] the following is noted: experiments with humans; cited from earlier work.
Series [4] concerns Tetrahydrocannabinol Antibody. Kind of series: ^125 I THC radioimmunoassay response curve, anion exchange resin separation. Format: binding, rabbit. Conditions: resin reagent.
Another series deals with antiserum. Kind of series: Binding of iodinated antigen to THC antiserum. On the set-up: species or system rabbit. On the procedure: A total of 50 μl of a solution of […] of (6aR-trans)-N-[2-(4-hydroxyphenyl)ethyl]-4-(6a,7,8,10a-Tetrahydro-6,6,9-trimethyl-3-pentyl-6H-dibenzo[b,d]pyran-1-oxy)butanamide in 1 ml of 100% alcohol was added to a vial containing 5 mCi of Na^125 I having a radioactive concentration of >100 mCi/ml. To this mixture was then added a total of 40 μl of chloramine T solution (5 mg/ml in 75% EtOH; 25% Borate buffer 0.1 M, pH 8.4). The reaction mixture was mixed for 180 seconds. After mixing, a total of 40 μl of a 1% solution of sodium meta bisulfite (75% EtOH, 25% Tris buffer 0.1 M, pH 7.0) was added to the reaction vial, and the vial contents were mixed for 30 seconds to stop the reaction.
The mixture was removed from the vial and placed on the surface of a Bio-Gel P-2 column (1.5×40 cm, 100-200 mesh) until completely absorbed on the column bed. Approximately 200 ml of 60% Tris -40% EtOH were added, and 100×1-2 ml fractions were collected. The eluate contained the above-captioned, labeled antigen.
After selection of the appropriate fractions (≥50% binding), the fractions were pooled and diluted 1:50 in 0.01 M phosphate buffered saline (PBS) containing 25% ethanol with 0.1% sodium azide and 0.002-0.007% butylated hydroxy toluene (BHT) as preservatives.
[…]. Multiple iodinations were performed on Δ^9 -tetrahydrocannabinol,and the radioisotopically-labeled reagent was used as the ^125 I-labeled antigen. The elution patterns varied considerably. In general, there were numerous small peaks in the elution patterns of most of the iodination products with the percent binding being lower than 50%. On occasion, there were two major peaks with insufficient binding (<50%) in either peak.
. Subsequent injections were made at four-week intervals with immunogen in Freund's incomplete adjuvant. Bleedings, obtained by venipuncture from immunized rabbits, were allowed to stand at 2°-8° C. temperature until the clot had formed. The serum was decanted and stored at from -20° to 5° C.

As for `CCCCCc1cc(O)c2c(c1)OC(C)(C)[C@@H]1CCC(C)=C[C@@H]21` [THC, Δ-9-tetrahydrocannabinol], the “Tetrahydrocannabinol Concentration in urine” value was determined as 10.0 ng THC E/ml in series [1] (subject 1 (smoked marijuana prior to study), sodium azide added, 0 h); 29.0 ng THC E/ml in series [1] (subject 1 (smoked marijuana prior to study), sodium azide added, 0-4 h); 70.0 ng THC E/ml in series [1] (subject 1 (smoked marijuana prior to study), sodium azide added, 4-8 h); 72.5 ng THC E/ml in series [1] (subject 1 (smoked marijuana prior to study), sodium azide added, 12-24 h); 41.5 ng THC E/ml in series [1] (subject 1 (smoked marijuana prior to study), sodium azide added, 24-48 h); 40.0 ng THC E/ml in series [1] (subject 1 (smoked marijuana prior to study), sodium azide added, 48-72 h). Besides, the “Tetrahydrocannabinol Concentration in urine” value in series [1] (subject 1 (smoked marijuana prior to study), 0 h) turned out to be 28.0 ng THC E/ml; in series [1] (subject 1 (smoked marijuana prior to study), 0-4 h), 45.0 ng THC E/ml; in series [1] (subject 1 (smoked marijuana prior to study), 4-8 h) it was 37.5 ng THC E/ml; in series [1] (subject 1 (smoked marijuana prior to study), 12-24 h), 45.0 ng THC E/ml; in series [1] (subject 1 (smoked marijuana prior to study), 24-48 h) it was 20.0 ng THC E/ml; in series [1] (subject 1 (smoked marijuana prior to study), 48-72 h), 27.5 ng THC E/ml. The “Tetrahydrocannabinol Concentration in urine” value in series [1] (subject 2, sodium azide added, 0 h) is reported as 5.0 ng THC E/ml; in series [1] (subject 2, sodium azide added, 0-4 h), 11.0 ng THC E/ml; in series [1] (subject 2, sodium azide added, 4-8 h), 13.5 ng THC E/ml; in series [1] (subject 2, sodium azide added, 8-12 h), 7.5 ng THC E/ml; in series [1] (subject 2, sodium azide added, 12-24 h) it was 17.5 ng THC E/ml; in series [1] (subject 2, sodium azide added, 24-48 h) it was 7.5 ng THC E/ml. For the same molecule, the “Tetrahydrocannabinol Concentration in urine” value is given as 5.0 ng THC E/ml in series [1] (subject 2, sodium azide added, 48-72 h); 5.0 ng THC E/ml in series [1] (subject 2, 0 h); 4.0 ng THC E/ml in series [1] (subject 2, 0-4 h); 26.0 ng THC E/ml in series [1] (subject 2, 4-8 h); 10.0 ng THC E/ml in series [1] (subject 2, 8-12 h); 7.5 ng THC E/ml in series [1] (subject 2, 12-24 h). For the same molecule, the “Tetrahydrocannabinol Concentration in urine” value in series [1] (subject 2, 24-48 h) was 22.5 ng THC E/ml; in series [1] (subject 2, 48-72 h), 12.5 ng THC E/ml. The DPM in series [2] (12.5 ng/ml THC) worked out at 13946 DPM; in series [2] (25.0 ng/ml THC), 11964 DPM; in series [2] (50.0 ng/ml THC) it was 11389 DPM; in series [2] (100.0 ng/ml THC), 11342 DPM; in series [2] (200.0 ng/ml THC), 10474 DPM; in series [4] (12.5 ng/ml THC), 31096 DPM. For the same molecule, the DPM turned out to be 29212 DPM in series [4] (25 ng/ml THC), 27945 DPM in series [4] (50 ng/ml THC), 26333 DPM in series [4] (100 ng/ml THC) and 25651 DPM in series [4] (200 ng/ml THC). For the same molecule, the “excretion route of metabolites” value in series [3] was “mainly via feces”. Moreover, in series [3], the extent of metabolism result is given as “almost complete metabolism”.

On to “(6aR-trans)-N-[2-hydroxyphenyl)ethyl]-4-(6a,7,10,10a-Tetrahydro-6,6,9-trimethyl-3-pentyl-6H-dibenzo[b,d]pyran-1-oxy)butanamide [Δ^9 -Tetrahydrocannabinol Derivative]”, for which, in the series with antiserum (antigen reagent, at least six weeks), the binding properties retained is reported as > 50%. For the same molecule, the “binding of iodinated product, major peak” value in the series with antiserum (upon iodination, major peak, fractions #10 to #15) is > 50%. In addition, in the series with antiserum (upon iodination, minor peak, fractions #30 to #35), the “binding of iodinated product, minor peak” value is “no binding”.
